Legend:
Assay type in all cases: cell-based
Calu-1 [1] = assay: PROTAC activity at DDB1/CyclinD1 in human Calu-1 cells assessed as induction of cyclin D1 degradation at 40 nM incubated for 16 hrs relative to control
Calu-1 [2] = assay: PROTAC activity at DDB1/CyclinD1 in human Calu-1 cells assessed as induction of cyclin D1 degradation at 400 nM incubated for 16 hrs relative to control
Calu-1 [3] = assay: PROTAC activity at DDB1/CDK4 in human Calu-1 cells assessed as induction of CDK4 degradation at 40 nM incubated for 16 hrs relative to control
Calu-1 [4] = assay: PROTAC activity at DDB1/CDK4 in human Calu-1 cells assessed as induction of CDK4 degradation at 400 nM incubated for 16 hrs relative to control

SMILES	Activity (Calu-1 [1]) [%]	Activity (Calu-1 [2]) [%]	Activity (Calu-1 [3]) [%]	Activity (Calu-1 [4]) [%]
CC(=O)c1c(C)c2cnc(Nc3ccc(N4CCN(CC(=O)NCCCCCNc5nc(C6CC6)ccc5C(=O)Nc5ccc(N(C)C)nn5)CC4)cn3)nc2n(C2CCCC2)c1=O	> 80	> 80	> 80	> 80
COc1ccc(NC(=O)c2ccc(C)nc2NCCCCCCCNC(=O)CN2CCN(c3ccc(Nc4ncc5c(C)c(C(C)=O)c(=O)n(C6CCCC6)c5n4)nc3)CC2)nn1	> 80	> 80	< 80	> 80
CC(=O)c1c(C)c2cnc(Nc3ccc(N4CCN(CC(=O)NCCCCCCCNc5nc(C)ccc5C(=O)Nc5ccc(N(C)C)nn5)CC4)cn3)nc2n(C2CCCC2)c1=O	> 80	> 80	< 80	> 80
CNc1ccc(C(=O)Nc2ccc(N(C)C)nn2)c(NCCCCNC(=O)CCN2CCN(c3ccc(Nc4ncc5c(C)c(C(C)=O)c(=O)n(C6CCCC6)c5n4)nc3)CC2)n1	> 80	> 80	< 80	< 80
CC(=O)c1c(C)c2cnc(Nc3ccc(N4CCN(CC(=O)NCCCCCCCNc5nc(C)ccc5C(=O)Nc5ccc(C)c(C6CC6)n5)CC4)cn3)nc2n(C2CCCC2)c1=O	> 80	> 80	< 80	> 80
CNc1ccc(C(=O)Nc2ccc(N(C)C)nn2)c(NCCCCC(C)NC(=O)CN2CCN(c3ccc(Nc4ncc5c(C)c(C(C)=O)c(=O)n(C6CCCC6)c5n4)nc3)CC2)n1 (centres undefined)	> 80	> 80	> 80	> 80

Source: ChEMBL document CHEMBL6074699, “Innovative Cancer Therapies: Targeting Oncogenic Pathways through Placental Immunology, PROTAC Technology, and Kinase Degradation” (ACS Med Chem Lett, 2024)
